In patent US11166972B2, “Compositions comprising nicotinamide riboside and a urolithin” (Amazentis SA, priority 2015, dated 2021):

System: mitochondrial respiratory subunits proteins in C2C12 myoblasts
Experiment: Western blot of mitochondrial respiratory subunits proteins in C2C12 myoblasts (Example 6)
Assay type: cell-based
Details: 48 hours
Protocol: C2C12 myoblasts were cultured in Dulbecco's modified Eagle's medium (DMEM) including 4.5 g/L glucose, 10% fetal calf serum, and 50 μg/mL gentamicin. Urolithin A (UA) was dissolved in DMSO in a stock solution of 50 mM. Nicotinamide riboside (NR) in the form of the triflate salt was dissolved in double-distilled water in a stock solution of 1 M. One hundred thousand cells were plated at time 0 hours in 6-wells plates. A total of 3 wells was used per condition (n=3 per group). Cells were treated in a volume of 2 ml for a period of 48 hours at final concentrations of (a) DMSO 0.1%, (b) 25 μM UA, (c) 0.1 mM NR, (d) 1 mM NR, (e) 25 μM UA+0.1 mM NR and (f) 25 μM UA+1 mM NR. At the end of the treatment, cells were lysed with cell lysis buffer (#9803, Cell signalling) containing protease (cOmplete™, Roche) and phosphatase inhibitor (PhosSTOP™, Roche) and applied to Invitrogen NuPage® Novex® Gel System (Bis-Tris Protein Gels −4-12%, Thermo fisher Scientific). Protein levels were examined for mitochondrial respiratory subunits, including mitochondrially encoded cytochrome c oxidase I (MTCO1), succinate dehydrogenase complex flavoprotein subunit A (SDHA) and B (SDHB), ubiquinol-cytochrome c reductase core protein II (UQCRC2) and ATP synthase, H+ transporting, mitochondrial F1 complex, alpha subunit 1 (ATP5A). The housekeeping protein tubulin-α was measured as a loading control. Detection of the proteins was performed using an Azure c300 (Azure biosystem) (FIG. 1B). Western Blot images were representative of the three biological replicates. Experiments were repeated at least 2 times. Bands were quantified using ImageJ software. The heatmap of the band intensities was drawn using GEN-E (Broad Institute) conditional formatting. Control DMSO values were set to one (FIG. 1A).

Row | Compound | ATP5A protein level, change vs DMSO control (UA 25 μM alone) | MT-CO1 protein level, change vs DMSO control (UA 25 μM alone, increase) | SDHA protein level, change vs DMSO control (UA 25 μM alone, increase) | SDHB protein level, change vs DMSO control (UA 25 μM alone, increase) | UQCRC2 protein level, change vs DMSO control (UA 25 μM alone, increase) | ATP5A protein level, change vs DMSO control (NR 0.1 mM) | SDHB protein level, change vs DMSO control (NR 0.1 mM) | MT-CO1 protein level, change vs DMSO control (NR 0.1 mM, decrease (printed −≈10%)) | SDHA protein level, change vs DMSO control (NR 0.1 mM, increase) | UQCRC2 protein level, change vs DMSO control (NR 0.1 mM, increase (+≈)) | SDHB protein level, change vs DMSO control (NR 1 mM) | ATP5A protein level, decrease vs DMSO control (NR 1 mM, decrease) [%] | MT-CO1 protein level, change vs DMSO control (NR 1 mM, decrease (printed −≈10%)) | SDHA protein level, change vs DMSO control (NR 1 mM, increase) | UQCRC2 protein level, change vs DMSO control (NR 1 mM, increase (+≈))
1 | O=c1oc2cc(O)ccc2c2ccc(O)cc12 [UA, Urolithin A] | no change | +14% | +54% | +10% | +26% | – | – | – | – | – | – | – | – | – | –
2 | Nicotinamide riboside [NR] | – | – | – | – | – | no effect | no change | ≈ 10% | ≈ 100% | ≈ 10% | no change | 20 | ≈ 10% | ≈ 100% | ≈ 10%
